# In ChEMBL document CHEMBL5728755, “Spirocycle compounds and methods of making and using same” (2021):
# Experiments:
# Monoglyceride lipase [1] = molecular target: T1, Monoglyceride lipase (Mus musculus, UniProt O35678); assay: Preparation of Mouse Brain Proteomes from Inhibitor Treated Mice: Inhibitors were administered to wild-type C57B1/6J by oral gavage in a vehicle of polyethylene glycol. Each animal was sacrificed 4 h following administration and brain proteomes were prepared and analyzed according to previously established methods (See Niphakis, M. J., et al. (2011) ACS Chem. Neurosci. and Long, J. Z., et al. Nat. Chem. Biol. 5:37-44).
# T1 sequence (O35678 whole entry): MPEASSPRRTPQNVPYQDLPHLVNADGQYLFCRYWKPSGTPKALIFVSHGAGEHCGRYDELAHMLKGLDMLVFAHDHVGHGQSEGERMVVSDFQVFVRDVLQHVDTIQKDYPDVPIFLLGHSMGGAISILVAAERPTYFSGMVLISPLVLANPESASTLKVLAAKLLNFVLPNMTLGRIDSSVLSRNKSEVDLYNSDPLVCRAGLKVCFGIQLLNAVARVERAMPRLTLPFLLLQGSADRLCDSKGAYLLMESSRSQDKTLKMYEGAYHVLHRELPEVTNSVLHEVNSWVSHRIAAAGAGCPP
# Monoglyceride lipase [2] = molecular target: T2, Monoglyceride lipase (Homo sapiens, UniProt Q99685); assay: In Vitro Competitive Activity-Based Protein Profiling: Proteomes (human prefrontal cortex or cell membrane fractions) (50 μL, 1.0 mg/mL total protein concentration) were preincubated with varying concentrations of inhibitors at 37° C. After 30 min, FP-Rh or HT-01 (1.0 μL, 50 μM in DMSO) was added and the mixture was incubated for another 30 min at room temperature. Reactions were quenched with SDS loading buffer (15 μL—4×) and run on SDS-PAGE.
# T2 sequence (Q99685 whole entry): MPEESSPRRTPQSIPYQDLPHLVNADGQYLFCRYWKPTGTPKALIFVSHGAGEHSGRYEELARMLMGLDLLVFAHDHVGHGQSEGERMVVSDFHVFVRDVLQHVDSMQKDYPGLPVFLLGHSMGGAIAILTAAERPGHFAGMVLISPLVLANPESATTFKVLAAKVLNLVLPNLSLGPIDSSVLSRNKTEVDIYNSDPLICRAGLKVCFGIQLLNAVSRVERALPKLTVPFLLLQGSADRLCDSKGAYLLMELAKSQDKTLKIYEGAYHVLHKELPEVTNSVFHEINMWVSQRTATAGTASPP
SMILES,IC50 (Monoglyceride lipase [1]) [nM],IC50 (Monoglyceride lipase [2]) [nM]
Cc1c(CN2CCCC23CCN(C(=O)OC(C(F)(F)F)C(F)(F)F)CC3)[nH]c2ccc(Cl)cc12,< 100,< 100
O=C(OC(C(F)(F)F)C(F)(F)F)N1CCC2(CCCN2C(=O)c2cc3ccc(F)cc3s2)CC1,< 100,–
Cc1ccc2cc(C(=O)N3CCCC34CCN(C(=O)OC(C(F)(F)F)C(F)(F)F)CC4)sc2c1,< 100,–
O=C(OC(C(F)(F)F)C(F)(F)F)N1CCC2(CCCN2Cc2cc3cc(Cl)c(Cl)cc3[nH]2)CC1,–,< 100
COCCN(C(=O)C1(c2ncccn2)CC1)C1(C)CCN(C(=O)OC(C(F)(F)F)C(F)(F)F)CC1,–,< 100
COc1cccc2cc(CN3CCCC34CCN(C(=O)OC(C(F)(F)F)C(F)(F)F)CC4)[nH]c12,< 100,< 100
